The source of these data is patent US11311542B2, “Inhibitors of cyclin dependent kinase 7 (CDK7)” (Syros Pharmaceuticals, Inc., priority 2018, dated 2022).

The subject of one assay is HCC70 cells. Put plainly: Inhibition of cell proliferation (CyQUANT Direct), HCC70. It counts as cell-based, human. The note with it: Homo sapiens, HCC70, 72-hour.
Another assay has as its system COV318 cells. Put plainly: Inhibition of cell proliferation (CyQUANT Direct), COV318. It counts as cell-based, human. As to conditions: Homo sapiens, COV318, 72-hour.
For another assay, the system named is COV504 cells. Put plainly: Inhibition of cell proliferation (CyQUANT Direct), COV504. As to conditions: Homo sapiens, COV504, 72-hour. It counts as cell-based, human.
The test system of a further assay is MB453 cells. Put plainly: Inhibition of cell proliferation (CyQUANT Direct), MB453. The format is cell-based, human. As to conditions: Homo sapiens, MB453, 72-hour.
A further assay addresses CDK2/Cyclin E1 complex (Homo sapiens, UniProt P24941). Put plainly: CDK2 kinase inhibition assay (Caliper/LabChip EZ Reader).
The target in assay [1] is CDK7/Cyclin H/MAT1 complex (Homo sapiens, UniProt P50613). Put plainly: CDK7 kinase inhibition assay (Caliper/LabChip EZ Reader).
For the next assay, the target named is CDK9/Cyclin T1 complex (Homo sapiens, UniProt P50750). Put plainly: CDK9 kinase inhibition assay (Caliper/LabChip EZ Reader).
Assay [2] has as its target CDK12 (aa686-1082)/Cyclin K complex (Homo sapiens, UniProt Q9NYV4). Put plainly: CDK12 kinase inhibition assay (Caliper/LabChip EZ Reader).

CDK7/Cyclin H/MAT1 complex, sequence (P50613 whole entry): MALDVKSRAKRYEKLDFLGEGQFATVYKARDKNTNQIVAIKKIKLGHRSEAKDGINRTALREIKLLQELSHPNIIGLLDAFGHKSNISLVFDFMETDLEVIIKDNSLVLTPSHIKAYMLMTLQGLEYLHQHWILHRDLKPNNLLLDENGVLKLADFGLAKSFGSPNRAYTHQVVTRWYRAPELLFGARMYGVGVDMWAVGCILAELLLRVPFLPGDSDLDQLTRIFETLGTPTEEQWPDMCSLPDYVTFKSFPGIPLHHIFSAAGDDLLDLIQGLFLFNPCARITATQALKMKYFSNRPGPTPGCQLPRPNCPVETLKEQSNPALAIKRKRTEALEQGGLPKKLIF
CDK7/Cyclin H/MAT1 complex, sequence (P51946 whole entry partner): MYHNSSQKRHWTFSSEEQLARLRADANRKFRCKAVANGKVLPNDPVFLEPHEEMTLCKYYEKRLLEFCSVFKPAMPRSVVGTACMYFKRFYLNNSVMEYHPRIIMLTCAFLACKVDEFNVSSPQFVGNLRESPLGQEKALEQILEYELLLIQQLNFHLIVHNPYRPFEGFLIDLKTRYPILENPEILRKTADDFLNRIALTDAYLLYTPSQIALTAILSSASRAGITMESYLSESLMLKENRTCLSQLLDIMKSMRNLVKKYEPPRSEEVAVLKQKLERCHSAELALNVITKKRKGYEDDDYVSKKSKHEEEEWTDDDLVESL
CDK7/Cyclin H/MAT1 complex, sequence (P51948 whole entry partner): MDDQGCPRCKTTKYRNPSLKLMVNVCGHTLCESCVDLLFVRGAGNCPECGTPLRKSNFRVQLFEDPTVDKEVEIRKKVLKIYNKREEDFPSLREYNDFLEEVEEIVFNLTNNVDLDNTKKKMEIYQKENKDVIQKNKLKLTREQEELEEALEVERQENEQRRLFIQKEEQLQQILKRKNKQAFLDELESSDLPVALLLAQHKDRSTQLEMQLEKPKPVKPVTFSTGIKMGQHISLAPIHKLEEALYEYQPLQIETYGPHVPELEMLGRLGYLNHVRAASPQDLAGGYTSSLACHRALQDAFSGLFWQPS
CDK12 (aa686-1082)/Cyclin K complex, sequence (Q9NYV4 686-1082): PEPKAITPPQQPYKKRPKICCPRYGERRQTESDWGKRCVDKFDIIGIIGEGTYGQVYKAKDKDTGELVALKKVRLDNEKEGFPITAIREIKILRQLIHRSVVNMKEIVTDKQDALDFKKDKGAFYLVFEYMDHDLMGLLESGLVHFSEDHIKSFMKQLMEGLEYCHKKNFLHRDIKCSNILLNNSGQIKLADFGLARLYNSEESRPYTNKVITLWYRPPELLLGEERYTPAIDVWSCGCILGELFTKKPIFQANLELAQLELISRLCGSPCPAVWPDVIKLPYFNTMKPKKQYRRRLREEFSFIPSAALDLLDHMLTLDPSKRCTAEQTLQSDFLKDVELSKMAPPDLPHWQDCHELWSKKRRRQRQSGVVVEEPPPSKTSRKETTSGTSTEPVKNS
CDK12 (aa686-1082)/Cyclin K complex, sequence (O75909 whole entry partner, the tested form may be a part): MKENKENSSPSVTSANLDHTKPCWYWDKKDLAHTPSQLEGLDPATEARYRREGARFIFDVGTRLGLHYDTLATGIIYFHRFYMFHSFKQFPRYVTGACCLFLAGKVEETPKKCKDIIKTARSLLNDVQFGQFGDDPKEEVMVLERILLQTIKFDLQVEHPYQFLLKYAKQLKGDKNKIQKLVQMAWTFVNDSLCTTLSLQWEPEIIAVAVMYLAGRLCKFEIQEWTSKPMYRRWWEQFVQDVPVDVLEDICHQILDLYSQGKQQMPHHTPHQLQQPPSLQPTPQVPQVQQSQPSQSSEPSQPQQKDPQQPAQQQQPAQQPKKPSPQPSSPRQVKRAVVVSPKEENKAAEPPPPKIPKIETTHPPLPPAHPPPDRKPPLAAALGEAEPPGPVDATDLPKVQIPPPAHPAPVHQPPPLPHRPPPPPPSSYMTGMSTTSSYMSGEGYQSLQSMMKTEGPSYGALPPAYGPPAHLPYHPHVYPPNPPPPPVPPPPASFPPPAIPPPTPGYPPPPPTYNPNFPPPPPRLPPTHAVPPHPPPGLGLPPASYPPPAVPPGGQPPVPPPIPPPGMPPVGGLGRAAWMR
CDK9/Cyclin T1 complex, sequence (P50750 whole entry, the tested form may be a part): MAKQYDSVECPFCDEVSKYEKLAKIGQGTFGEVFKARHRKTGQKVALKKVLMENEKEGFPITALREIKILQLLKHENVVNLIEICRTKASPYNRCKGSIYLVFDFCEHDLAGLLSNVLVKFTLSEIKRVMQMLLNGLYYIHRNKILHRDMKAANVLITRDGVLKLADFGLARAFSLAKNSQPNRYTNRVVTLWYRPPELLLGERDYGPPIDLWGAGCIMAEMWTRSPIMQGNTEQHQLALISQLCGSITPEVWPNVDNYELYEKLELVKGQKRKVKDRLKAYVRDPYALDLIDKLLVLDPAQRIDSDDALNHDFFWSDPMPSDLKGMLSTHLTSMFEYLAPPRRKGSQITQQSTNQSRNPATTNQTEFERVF
CDK9/Cyclin T1 complex, sequence (O60563 whole entry partner, the tested form may be a part): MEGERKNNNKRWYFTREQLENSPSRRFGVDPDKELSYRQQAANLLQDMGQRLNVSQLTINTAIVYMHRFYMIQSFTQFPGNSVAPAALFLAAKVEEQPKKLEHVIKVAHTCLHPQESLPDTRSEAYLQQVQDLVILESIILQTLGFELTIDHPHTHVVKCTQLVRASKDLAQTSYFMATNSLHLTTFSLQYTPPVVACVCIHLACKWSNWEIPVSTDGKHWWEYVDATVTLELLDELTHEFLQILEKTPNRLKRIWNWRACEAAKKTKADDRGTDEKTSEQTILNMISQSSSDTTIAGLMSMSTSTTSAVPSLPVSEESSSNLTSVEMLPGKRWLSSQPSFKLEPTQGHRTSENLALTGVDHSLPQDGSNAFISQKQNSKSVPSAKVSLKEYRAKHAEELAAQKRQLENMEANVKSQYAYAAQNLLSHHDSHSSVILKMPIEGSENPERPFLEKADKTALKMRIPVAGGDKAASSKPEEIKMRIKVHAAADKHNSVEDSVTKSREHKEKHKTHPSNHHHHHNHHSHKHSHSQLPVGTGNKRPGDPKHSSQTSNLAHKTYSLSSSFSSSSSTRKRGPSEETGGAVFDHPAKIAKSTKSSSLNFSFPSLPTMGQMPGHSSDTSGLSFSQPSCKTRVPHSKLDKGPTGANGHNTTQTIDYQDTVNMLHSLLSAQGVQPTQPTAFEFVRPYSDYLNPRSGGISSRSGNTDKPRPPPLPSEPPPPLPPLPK

A word on the IC50: it is the concentration needed to halve the response being measured. A lower IC50 goes with higher potency. As for `Cc1nnc(C)n1-c1ccc2c(-c3nc(N[C@H]4CCCNC4)ncc3C(F)(F)F)c[nH]c2n1` [Compound 140, 4-[6-(3,5-dimethyl-1,2,4-triazol-4-yl)-1H-pyrrolo[2,3-b]pyridin-3-yl]-N-[(3S)-3-piperidyl]-5-(trifluoromethyl)pyrimidin-2-amine], the IC50 with HCC70 cells is over 1000 nM; in the assay with COV318 cells, over 1000 nM; in the assay on COV504 cells, 100 to 500 nM; in the assay with MB453 cells, 500 to 1000 nM; on CDK2/Cyclin E1 complex it was over 500 nM; in assay [1], under 30 nM. Further, the IC50 (on CDK9/Cyclin T1 complex; in assay [2]) was over 500 nM each time.

As for `Cn1nncc1-c1ccc2c(-c3nc(N[C@H]4CCCNC4)ncc3C(F)(F)F)c[nH]c2c1` [Compound 126], the IC50 in the assay on HCC70 cells was under 100 nM; in the assay with COV318 cells, 100 to 500 nM; in the assay on COV504 cells, under 100 nM; in the assay with MB453 cells, under 100 nM; at CDK2/Cyclin E1 complex, over 500 nM; in assay [1], under 30 nM. For the same molecule, the IC50 (against CDK9/Cyclin T1 complex; in assay [2]) was over 500 nM in each case.

With `Cc1noc(C)c1-c1ccc2c(-c3nc(N[C@H]4CCCNC4)ncc3C(F)(F)F)n[nH]c2n1` [Compound 118, 4-[6-(3,5-dimethylisoxazol-4-yl)-1H-pyrazolo-[3,4-b]-pyridin-3-yl]-N-[(3S)-3-piperidyl]-5-(trifluoromethyl)pyrimidin-2-amine], the concentration for half-maximal inhibition (IC50) in the assay on HCC70 cells was under 100 nM; in the assay with COV318 cells, 100 to 500 nM; with COV504 cells, under 100 nM; in the assay on MB453 cells it was under 100 nM; against CDK2/Cyclin E1 complex it was over 500 nM; in assay [1] it was under 30 nM. Besides, the IC50 (at CDK9/Cyclin T1 complex; in assay [2]) was over 500 nM in each case.

With `CNC(=O)[C@H]1CNC[C@@H](Nc2ncc(C(F)(F)F)c(-c3c[nH]c4nc(-c5nccs5)ccc34)n2)C1` [Compound 145, (3R, 5S)—N-methyl-5-[[4-(6-thiazol-2-yl-1H-pyrrolo[2,3-b]pyridin-3-yl)-5-(trifluoromethyl)pyrimidin-2-yl]amino]piperidine-3-carboxamide], the IC50 in the assay on HCC70 cells is 100 to 500 nM; in the assay with COV318 cells, over 1000 nM; with COV504 cells, 100 to 500 nM; in the assay on MB453 cells, 100 to 500 nM; against CDK2/Cyclin E1 complex, over 500 nM; in assay [1], under 30 nM. The IC50 (on CDK9/Cyclin T1 complex; in assay [2]) was over 500 nM throughout.

In the case of `CNC(=O)[C@H]1CNC[C@@H](Nc2ncc(C(F)(F)F)c(-c3c[nH]c4nc(-c5c(C)noc5C)ccc34)n2)C1` [Compound 120], the half-inhibitory concentration (IC50) was 100 to 500 nM in the assay with HCC70 cells; 500 to 1000 nM in the assay on COV318 cells; 100 to 500 nM in the assay with COV504 cells; under 100 nM in the assay with MB453 cells; over 500 nM against CDK2/Cyclin E1 complex; under 30 nM in assay [1]. In addition, the IC50 (against CDK9/Cyclin T1 complex; in assay [2]) was over 500 nM each time.

With `Cc1noc(C)c1-c1ccc2c(-c3nc(N[C@@H]4CNC[C@H](O)C4)ncc3C(F)(F)F)c[nH]c2n1` [Compound 133, (3R,5S)-5-[[4-[6-(3,5-dimethylisoxazol-4-yl)-1H-pyrrolo[2,3-b]pyridin-3-yl]-5-(trifluoromethyl)pyrimidin-2-yl]amino]piperidin-3-ol], the IC50 is under 100 nM in the assay on HCC70 cells; 100 to 500 nM with COV318 cells; under 100 nM with COV504 cells; under 100 nM in the assay with MB453 cells; over 500 nM on CDK2/Cyclin E1 complex; under 30 nM in assay [1]. Further, the IC50 (on CDK9/Cyclin T1 complex; in assay [2]) was over 500 nM in each case.
